Reference: patent publication US10172875B2, “Therapeutic combinations comprising anti-FOLR1 immunoconjugates” (ImmunoGen, Inc., priority 2015, dated 2019)
Where two headings read alike, the source gives them in different places.

Experiments:
[1] = tested on: ST088 human epithelial ovarian cancer patient derived tumor xenografts; assay: Antitumor activity of IMGN853, PLD and combination in ST088 tumor model (Example 1); format: in vivo, SCID mice
Description: Tumor volumes were measured twice weekly in three dimensions using a caliper. […] FIG. 1 depicts the results.

[2] = tested on: γH2AX; assay: γH2AX immunoblot of cellular extracts, IMGN853 and carboplatin (FIG. 9C); format: cell-based; conditions: carboplatin 40 μM, IMGN853 16 nM, alone or combined, 6 hours, then 18 hours drug-free medium
Text: Cellular extracts were immunoblotted for γH2AX or actin (loading control) as indicated.

[3] = tested on: platinum-sensitive ovarian cancer patient derived xenografts (PDXs); assay: IMGN853 and carboplatin, single administration, in platinum-sensitive ovarian cancer PDX (FIG. 9D); format: in vivo, SCID mice
Description: Data are expressed as mean and standard error of the mean (SEM) for each time point.
To examine whether these in vitro cellular effects translated to improved efficacy in vivo, mice bearing patient-derived xenografts (PDX) obtained from an individual with EOC were treated with IMGN853 and carboplatin, both as single agents and in combination (FIG. 9D). […] Animals received a single administration of IMGN853 (2.5 mg/kg) or carboplatin (80 mg/kg), and each regimen inhibited tumor growth as monotherapy (T/C values of 43% and 20% on day 39, respectively).

[4] = tested on: OV90 serous ovarian tumor xenografts; assay: Antitumor activity of IMGN853 (2.5 mg/kg), bevacizumab and combination in OV90 tumor model (Example 3); format: in vivo, SCID mice; conditions: IMGN853 2.5 mg/kg 1× and/or bevacizumab 5 mg/kg 1×
Text: FIG. 2B depicts the results.

[5] = tested on: OV90 serous ovarian tumor xenografts; assay: Antitumor activity of IMGN853 (1.25 mg/kg), paclitaxel, bevacizumab and combinations in OV90 tumor model (Example 4); format: in vivo, SCID mice; conditions: single doses: IMGN853 1.25 mg/kg, paclitaxel 10 mg/kg, bevacizumab 5 mg/kg
Description: Mice were randomized into groups (n=8 per group) by tumor volume and subsequently dosed on Day 14 post-inoculation. All treatments consisted of single doses (1×).
Tumor volumes were measured one to two times weekly in three dimensions using a caliper. […] Body weights were measured twice per week as an index of toxicity.

[6] = tested on: ST088 human epithelial ovarian cancer (EOC) patient-derived tumor xenografts; assay: Antitumor activity of IMGN853, bevacizumab, paclitaxel and combinations in ST088 tumor model (Example 6); format: in vivo, SCID mice; conditions: QWx2: IMGN853 5 mg/kg, bevacizumab 5 mg/kg, paclitaxel 10 mg/kg
Description: Tumor volumes were measured twice weekly in three dimensions using a caliper.

[7] = tested on: IGROV-1 cells; assay: Cell cycle analysis, IMGN853 and carboplatin (FIG. 9B); format: cell-based; conditions: carboplatin 20 μM, IMGN853 8 nM, alone or combined, 6 hours, then 24 hour drug-free medium
Description: Cells were washed, and cell cycle distribution determined following 24 hour culture in drug-free medium.

[8] = tested on: OV90 serous ovarian tumor xenografts; assay: Antitumor activity of IMGN853, cediranib and combination in OV90 tumor model (Example 9); format: in vivo, SCID mice; conditions: IMGN853 2.5 mg/kg 1× and/or cediranib 1.5 mg/kg qd×5
Text: The term “respond favorably” generally refers to causing a beneficial state in a subject. With respect to cancer treatment, the term refers to providing a therapeutic effect on the subject. Positive therapeutic effects in cancer can be measured in a number of ways (See, W. A. Weber, J. Nucl. Med. 50:1S-10S (2009)). For example, tumor growth inhibition, molecular marker expression, serum marker expression, and molecular imaging techniques can all be used to assess therapeutic efficacy of an anti-cancer therapeutic. Log10 Cell Kill (LCK) can be used to quantify the tumor cell kill. Log10 cell kill (LCK) is calculated with the formula LCK=(T−C)/Td×3.32, where (T−C) (or tumor growth delay (TGD)) is the median time (in days) for the treatment group and control group tumors to reach a predetermined size (tumor-free survivors excluded). Td is the tumor doubling time (estimated from nonlinear exponential curve fit of daily median of control tumor growth), and 3.32 is the number of cell doublings per log of cell growth. The ability to reduce tumor volume may be assessed, for example, by measuring a % T/C value, which is the median tumor volume of treated subjects divided by the median tumor volume of the control subjects. With respect to tumor growth inhibition, according to NCI standards, a T/C≤42% is the minimum level of anti-tumor activity. A T/C<10% is considered a high anti-tumor activity level, with T/C (%)=Median tumor volume of the treated/Median tumor volume of the control×100. A favorable response can be assessed, for example, by increased progression-free survival (PFS), disease-free survival (DFS), or overall survival (OS), complete response (CR), partial response (PR), or, in some cases, stable disease (SD), a decrease in progressive disease (PD), a […] time to progression (TTP), a decrease in CA125 in the case of ovarian cancer, or any combination thereof.

[9] = tested on: H2110 non-small cell lung cancer (NSCLC) tumor xenografts; conditions: for CR / PR: responders/animals
Description: Mice were randomized into groups (n=6-10 per group) by tumor volume and subsequently dosed on Day 7 post-inoculation. All treatments consisted of single doses (1×).
Tumor volumes were measured one to two times weekly in three dimensions using a caliper. The tumor volume was expressed in mm^3 using the formula V=Length×Width×Height×½ (Tomayko 1989). Body weights were measured twice per week as an index of test agent toxicity. Activity was assessed as described in Bissery et al. (1991).

[10] = tested on: OV-90 xenografts; assay: OV-90 tumors harvested 4 days post-dosing: histology, γH2AX, CD31, anti-maytansine (FIGS. 12A-12C); format: in vivo, mice; conditions: IMGN853 2.5 mg/kg and/or bevacizumab 5 mg/kg
Description: Original magnification, 4×; scale bars, 2 mm (for Combination panel, 600 μm).
For each group, representative micrographs from one of three tumors are shown. Original magnification, 20×; scale bars, 200 μm.
Next, as a pharmacodynamic readout, tumor γH2AX levels were measured by immunoblotting (FIG. 12B).
While genotoxic insults are the primary inducers of γH2AX, accumulation of this protein can also occur in response to hypoxia. […] In order to examine treatment-related effects on microvessels, immunohistochemical staining with the endothelial cell marker CD31 was performed (FIG. 12C, upper panel).

[11] = tested on: OV90 serous ovarian tumor xenografts; conditions: IMGN853 5 mg/kg 1× and/or bevacizumab 5 mg/kg 1×
Description: Mice were randomized into groups (n=6 per group) by tumor volume and subsequently dosed on Day 14 post-inoculation.
Tumor volumes were measured one to two times weekly in three dimensions using a caliper. The tumor volume was expressed in mm^3 using the formula V=Length×Width×Height×½ (Tomayko and Reynolds, Cancer Chemother. Pharmacol. 24:148-54 (1989)) Body weights were measured twice per week as an index of toxicity. Activity was assessed as described in Bissery et al. (1991).

[12] = IMGN853 5 mg/kg QWx2 and/or PLD 4 mg/kg QWx2
[13] = IMGN853 5 mg/kg QWx2 and/or PLD 4 mg/kg QWx2, responders/animals
[14] = IMGN853 1.5 mg/kg 1×, alone or with bevacizumab 5 mg/kg 1×
[15] = IMGN853 3 mg/kg 1× and/or bevacizumab 5 mg/kg 1×

## IMGN853
[1]; IMGN853 5 mg/kg QWx2
  tolerability / body weight: well tolerated with no notable body weight loss observed
[1]; [12]
  T/C: 31%
  antitumor activity rating: active
[1]; [13]
  complete responses (CR): 0/8
  partial responses (PR): 0/8
[2]
  γH2AX expression: induced γH2AX expression in IGROV-1 cells and to levels higher than those seen following carboplatin exposure alone
[3]; dose not stated
  single agent activity, previously determined (data not shown): robust single agent activity
[3]; single administration: IMGN853 2.5 mg/kg and/or carboplatin 80 mg/kg, day 39
  T/C: 43%
[4]
  T/C: 36%
  TFS: 0/6
  antitumor activity rating: active
[4]; responders/animals
  CR: 0/6
[5]
  TFS: 0/7
  antitumor activity rating: active
[5]; alone or combined
  T/C: 37%
[5]; responders/animals
  CR: 0/7
[6]
  antitumor activity rating: active
[6]; alone or combined
  T/C: 31%
[6]; responders/animals
  CR: 0/8
  PR: 0/8
[7]
  cell cycle distribution: enrichment of cells in G2/M
[8]
  T/C: 31%
  antitumor activity rating: active
[8]; Log10 cell kill
  LCK: 0.5
[8]; responders/animals
  PR: 0/6
[8]; tumor growth delay
  T−C: 13 days
[9]; [14]
  T/C: 64%
  TFS: 0/6
  antitumor activity rating: inactive
  CR: 0/6
  PR: 1/6
[9]; IMGN853 1.5 mg/kg monotherapy, Day 25 post-inoculation
  body weight loss: 8%
[9]; [15]
  T/C: 25%
  TFS: 0/6
  antitumor activity rating: active
  CR: 0/6
  PR: 2/6
[9]; IMGN853 3 mg/kg monotherapy, Day 42 post-inoculation
  body weight loss: 9%
[10]; 4 days post-dosing
  tumor γH2AX levels by immunoblotting: robustly induced
[10]; day 4
  tumor microvessels, CD31 immunohistochemical staining: numerous large vessels
[11]
  T/C: 36%
  antitumor activity rating: active
  tumor free survivors (TFS): 0/5
[11]; responders/animals
  CR: 1/5
